Results reported in article PMC6207370 (Xenobiotica; the fate of foreign compounds in biological …, 2017).
Where two headings read alike, the source gives them in different places. Marks after values point to notes of the source that are not given here.

Assays:
Allometric scaling = assay: Allometric scaling; design: species or system human; conditions: for SSS Human Predicted S9 CLint: exponent 0.75
[1] = assay type: in vitro ADME
[2] = Incubations with rat hepatic S9; conditions: for CLint scaled at 1 μM: male, Sprague-Dawley, Table 1, triplicate, 2–3 experiments; for Fm,AO Method A (fraction metabolized by AO): method A (eq. 4); for Fm,AO Method B (fraction metabolized by AO): method B (eq. 5), values > 1 assumed equal to 1; for CLHEP (hepatic clearance): well-stirred model from S9 CLint (+NADPH), uncorrected for fraction unbound
[3] = Incubations with human hepatic S9; conditions: for CLint scaled at 1 μM: both; for Fm,AO Method A (fraction metabolized by AO) / Fm,AO Method B (fraction metabolized by AO) / Fm,AO (fraction metabolized by AO): human hepatic S9; for Fm,AO Method A (fraction metabolized by AO): method A (eq. 4); for Fm,AO Method B (fraction metabolized by AO): method B (eq. 5), values > 1 assumed equal to 1; for Fm,AO (fraction metabolized by AO): methods A and B taken together (data from Table 3)
[4] = Incubations with mouse hepatic S9; conditions: for CLint scaled at 1 μM: male, CD-1, mouse, Table 1, triplicate, 2–3 experiments; for Fm,AO Method A (fraction metabolized by AO): method A (eq. 4); for Fm,AO Method B (fraction metabolized by AO): method B (eq. 5), values > 1 assumed equal to 1
[5] = Incubations with minipig hepatic S9; conditions: for CLint scaled at 1 μM: male, Gottingen, Table 1, triplicate, 2–3 experiments; for Fm,AO Method A (fraction metabolized by AO): method A (eq. 4); for Fm,AO Method B (fraction metabolized by AO): method B (eq. 5), values > 1 assumed equal to 1
[6] = Incubations with guinea pig hepatic S9; conditions: for Fm,AO Method A (fraction metabolized by AO) / Fm,AO Method B (fraction metabolized by AO): guinea pig hepatic S9; for Fm,AO Method A (fraction metabolized by AO): method A (eq. 4); for Fm,AO Method B (fraction metabolized by AO): method B (eq. 5), values > 1 assumed equal to 1
[7] = Incubations with rhesus monkey hepatic S9; conditions: for Fm,AO Method A (fraction metabolized by AO) / Fm,AO Method B (fraction metabolized by AO): rhesus monkey hepatic S9; for Fm,AO Method A (fraction metabolized by AO): method A (eq. 4); for Fm,AO Method B (fraction metabolized by AO): method B (eq. 5), values > 1 assumed equal to 1
[8] = Incubations with cynomolgus monkey hepatic S9; conditions: for Fm,AO Method A (fraction metabolized by AO): method A (eq. 4); for Fm,AO Method B (fraction metabolized by AO): method B (eq. 5), values > 1 assumed equal to 1
[9] = mouse; ref Dalvie D, Zhang C, Chen W, et al. (2010); cited from earlier work
[10] = rat; ref Dalvie D, Zhang C, Chen W, et al. (2010); cited from earlier work
[11] = cynomolgus monkey; ref Dalvie D, Zhang C, Chen W, et al. (2010); cited from earlier work
[12] = rat, hepatic S9, pH 7.4, CLint (intrinsic clearance) in hepatic S9, rat hepatic S9, in the presence of NADPH
[13] = human, hepatic S9, pH 7.4, CLint (intrinsic clearance) in hepatic S9, human hepatic S9, in the presence of NADPH, Table 1, triplicate, 2–3 experiments
[14] = human, hepatic S9, pH 7.4, CLint −NADPH, human hepatic S9 without NADPH
[15] = hepatic S9, pH 7.4, CLint (intrinsic clearance) in hepatic S9, mouse hepatic S9, in the presence of NADPH
[16] = minipig, hepatic S9, pH 7.4, CLint (intrinsic clearance) in hepatic S9, minipig hepatic S9, in the presence of NADPH

| Compound | Fm,AO, across species ([1]; all species) | CLint scaled at 1 μM [2, 12] [mL/min/kg] | Fm,AO Method A (fraction metabolized by AO) ([2]; rat hepatic S9) | Fm,AO Method B (fraction metabolized by AO) ([2]; rat hepatic S9) | CLHEP (hepatic clearance) ([2]; rat) [mL/min/kg] | CLint scaled at 1 μM [3, 13] [mL/min/kg] | CLint scaled at 1 μM [3, 14] [mL/min/kg] | Fm,AO Method A (fraction metabolized by AO) [3] | Fm,AO Method B (fraction metabolized by AO) [3] | CLint scaled at 1 μM [4, 15] [mL/min/kg] | Fm,AO Method A (fraction metabolized by AO) ([4]; mouse hepatic S9) | Fm,AO Method B (fraction metabolized by AO) ([4]; mouse hepatic S9) | Fm,AO Method A (fraction metabolized by AO) ([5]; minipig hepatic S9) | Fm,AO Method B (fraction metabolized by AO) ([5]; minipig hepatic S9) | Fm,AO Method A (fraction metabolized by AO) [6] | Fm,AO Method B (fraction metabolized by AO) [6] | Fm,AO Method A (fraction metabolized by AO) [7] | Fm,AO Method B (fraction metabolized by AO) [7] | Fm,AO Method A (fraction metabolized by AO) ([8]; cynomolgus monkey hepatic S9) | Fm,AO Method B (fraction metabolized by AO) ([8]; cynomolgus monkey hepatic S9) | also measured |
| --- | --- | --- | --- | --- | --- | --- | --- | --- | --- | --- | --- | --- | --- | --- | --- | --- | --- | --- | --- | --- | --- |
| Cn1cc(-c2ccc3nnc(Sc4ccc5ncccc5c4)n3n2)cn1 [SGX523] | 0.03 – 0.68 | 35.3 ± 6.39 | 0.42 | 0.28 | 23.3 ± 2.85 | 7.1 ± 2.28 | 4.51 ± 0.31 | 0.36 | 0.61 | 39.4 ± 7.19 | 0.33 | 0.22 | 0.18 | 0.12 | 0.23 | 0.03 | 0.34 | 0.14 | 0.58 | 0.68 | fold-error of human S9 CLint predicted by SSS (Allometric scaling; SSS from cynomolgus monkey): outside of 3-fold-error; fold-error of human S9 CLint predicted by multispecies allometry (MA) (Allometric scaling; minipig/rhesus/guinea pig combination, CLpred/CLobs): 3.0; E (estimated hepatic extraction ratio), across species ([1]; all species (human, mouse, rat, guinea pig, cynomolgus, rhesus, minipig) hepatic S9): 0.25 – 0.50; E (estimated hepatic extraction ratio) ([2]; rat, E = CLHEP/QH from hepatic S9 (+NADPH)): 0.33; E (estimated hepatic extraction ratio) ([3]; human, E = CLHEP/QH from hepatic S9 (+NADPH)): 0.25; E (estimated hepatic extraction ratio) ([4]; mouse, E = CLHEP/QH from hepatic S9 (+NADPH)): 0.30; CLint scaled at 1 μM [5, 16]: 25.4 ± 1.46 mL/min/kg; E (estimated hepatic extraction ratio) ([5]; minipig, E = CLHEP/QH from hepatic S9 (+NADPH)): 0.48; E (estimated hepatic extraction ratio) ([6]; guinea pig, E = CLHEP/QH from hepatic S9 (+NADPH)): 0.41; E (estimated hepatic extraction ratio) ([7]; rhesus monkey, E = CLHEP/QH from hepatic S9 (+NADPH)): 0.40; E (estimated hepatic extraction ratio) ([8]; cynomolgus monkey, E = CLHEP/QH from hepatic S9 (+NADPH)): 0.50 |
| CCN(C(C)=O)c1cccc(-c2ccnc3c(C#N)cnn23)c1 [Zaleplon, zaleplon] | – | – | – | – | 12.7 ± 2.10 | – | – | 1 | 0.71 | – | 0.22 | 0 | 0.17 | 0 | 1 | 0.50 | 0.42 | 0.65 | 1 | 0.70 | Fm,AO, across species ([1]; cynomolgus monkey, rhesus monkey, and guinea pig S9): 0.42–0.70; Fm,AO, across species ([1]; mouse and minipig S9): ≤ 0.22; CLint scaled at 1 μM ([2]; rat, s9, pH 7.4, CLint (intrinsic clearance) in hepatic S9, rat hepatic S9, in the presence of NADPH): 15.6 ± 3.05 mL/min/kg; CLint scaled at 1 μM ([3]; human, s9, pH 7.4, CLint (intrinsic clearance) in hepatic S9, human hepatic S9, in the presence of NADPH, Table 1, triplicate, 2–3 experiments): 5.8 ± 1.02 mL/min/kg; CLint scaled at 1 μM ([3]; human, s9, pH 7.4, CLint −NADPH, human hepatic S9 without NADPH): 3.96 ± 1.35 mL/min/kg; Fm,AO (fraction metabolized by AO) [3]: ≥ 0.71; CLint scaled at 1 μM ([4]; s9, pH 7.4, CLint (intrinsic clearance) in hepatic S9, mouse hepatic S9, in the presence of NADPH): 24.4 ± 5.28 mL/min/kg; CLint scaled at 1 μM ([5]; minipig, s9, pH 7.4, CLint (intrinsic clearance) in hepatic S9, minipig hepatic S9, in the presence of NADPH): 5.55 ± 1.34 mL/min/kg; Fm,AO (fraction metabolized by AO) ([5]; minipig hepatic S9, methods A and B taken together): ≤ 0.17 |
| N=C(N)NC(=O)c1cnn(-c2cccc3ncccc23)c1C1CC1 [Zoniporide] | > 0.70 | 466 ± 27 | 0.74 | 0.72 | 60.8 ± 0.485 | 17.9 ± 1.77 | 17.1 ± 1.53 | 0.77 | 0.72 | 332 ± 11.3 | 0.90 | 0.90 | 0.83 | 0.97 | 0.84 | 0.97 | 0.77 | 1^# | 0.90 | 1 | SSS Human Predicted S9 CLint (Allometric scaling; single-species scaling from cynomolgus monkey S9 CLint): 30.7 mL/min/kg; SSS Human Predicted S9 CLint (Allometric scaling; single-species scaling from mouse S9 CLint): 43.1 mL/min/kg; SSS Human Predicted S9 CLint (Allometric scaling; single-species scaling from rat S9 CLint): 114 mL/min/kg; CLp (plasma clearance) [9]: 298^§ mL/min/kg; CLp (plasma clearance) [10]: 237^§ mL/min/kg; CLp (plasma clearance) [11]: 31^§ mL/min/kg; Fm,AO (fraction metabolized by AO) ([2]; rat hepatic S9, methods A and B taken together (data from Table 3)): 0.72–0.74; Fm,AO (fraction metabolized by AO) [3]: 0.72–0.77; Fm,AO (fraction metabolized by AO) ([4]; mouse hepatic S9, methods A and B taken together (data from Table 3)): 0.90; CLint scaled at 1 μM [5, 16]: 23.4 ± 2.07 mL/min/kg; SSS Human Predicted CLp (Single-species scaling; single-species scaling from literature cynomolgus monkey CLp): 15.2 mL/min/kg; SSS Human Predicted CLp (Single-species scaling; single-species scaling from literature mouse CLp): 39.2 mL/min/kg; SSS Human Predicted CLp (Single-species scaling; single-species scaling from literature rat CLp): 62.7 mL/min/kg; Fm,AO (fraction metabolized by AO) ([8]; cynomolgus monkey hepatic S9, methods A and B taken together (data from Table 3)): ≥ 0.90 |
